Three compounds from ChEMBL document CHEMBL1130364, “3-Amino-1,2-benzisoxazoles: A new family of potent inhibitors of LTB4 binding to the human neutrophils” (Bioorg Med Chem Lett, 1997) can be followed below.

The target in assay [1] is Leukotriene B4 receptor 1 (Homo sapiens) (UniProt Q15722). The assay is described as follows: The compound was tested for inhibition of [3H]-LTB4 binding to Leukotriene B4 (LTB4) receptor on the human neutrophils (PMN) at concentration of 10 nM.
The target is the same in assay [2]. The assay is described as follows: The compound was tested for inhibition of [3H]LTB4 binding to Leukotriene B4 (LTB4) receptor on the human neutrophils (PMN) at concentration of 100 nM.
The target is the same in assay [3]. Briefly: The compound was tested for inhibition of [3H]LTB4 binding to Leukotriene B4 (LTB4) receptor on the human neutrophils (PMN) at concentration of 1 uM.

Chain of Leukotriene B4 receptor 1 (Homo sapiens) (Q15722 whole entry): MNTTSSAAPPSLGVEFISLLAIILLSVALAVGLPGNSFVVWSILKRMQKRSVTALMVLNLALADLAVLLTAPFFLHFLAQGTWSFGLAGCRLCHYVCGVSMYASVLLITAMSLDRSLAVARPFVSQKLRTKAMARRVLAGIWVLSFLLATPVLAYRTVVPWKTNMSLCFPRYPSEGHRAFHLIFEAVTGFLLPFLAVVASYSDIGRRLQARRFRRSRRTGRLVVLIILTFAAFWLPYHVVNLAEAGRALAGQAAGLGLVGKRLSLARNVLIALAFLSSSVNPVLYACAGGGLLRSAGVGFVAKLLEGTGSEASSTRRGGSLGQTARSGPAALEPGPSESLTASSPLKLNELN

Take `COc1cc(C(=O)N(C(C)C)C(C)C)ccc1OCCCCCOc1ccc2c(N)noc2c1`: the results for the inhibition in assay [1], in assay [2] and in assay [3] were less than 10%, 10% and 90%, respectively.

Consider `COc1cc(C(=O)N(C(C)C)C(C)C)ccc1OCCCCOc1ccc2c(N)noc2c1`, for which the figures for the inhibition in assay [1], in assay [2] and in assay [3] were 64%, 95% and 99%, respectively.

Take `COc1cc(C(=O)N(C(C)C)C(C)C)ccc1OCCCOc1ccc2c(N)noc2c1`: the inhibition in assay [1] is less than 10%; in assay [2] it was 37%; in assay [3], 92%.
